Laboratory results: patent publication US11572475B2, “Carbocyanines for G-quadruplex DNA stabilization and telomerase inhibition” (GEORGIA STATE UNIVERSITY RESEARCH FOUNDATION, INC., priority 2011, dated 2023)

The compounds below were run on Duplex DNA (assay: Thermal melting UV-Vis absorbance, duplex DNA). Settings: ratio 1:1 (R).
Format: binding
Protocol: (§1) Three DNA sequences were used: Human Telomere (HTelo), c-myc, and Duplex (Integrated DNA Technologies, San Diego, Calif.). The sequences are shown below:
(§2) The buffer used was 10 mM Tris base (Fischer Scientific, Fairlawn, N.J.), 50 mM Potassium Chloride (Fischer Scientific, Fairlawn, N.J.), with the pH adjusted to 7.5 with Hydrochloric Acid (Fischer Scientific, Fairlawn, N.J.).
(§3) DNA folding and unfolding (melting) can be measured using absorbance at a constant wavelength of 260 nm for duplex DNA and 295 nm for quadruplex DNA while the temperature is increased, for example from 25° C. to 95° C. At these wavelengths, the resulting curves decrease in absorbance for quadruplex and increase for duplex DNA. Buffer solution and presence of DNA-binding compounds alter the Tm melting temperature, or midpoint between fully folded and unfolded. An increase in melting temperature in the presence of DNA-binding compounds indicates a stabilizing effect of the compound on the DNA structure.
(§4) The selectivity of a given cyanine for quadruplex DNA can be evaluated using thermal melting. The number in parentheses next to the compound number corresponds to the compound number in Schemes 1 and 2.
(§5) Thermal melting studies were also performed on compounds T4 and T5 (Scheme 2) and ZK-14 and SP-2-36.
With CC1(C)C(=CC=CC2=[N+](CCC[N+](C)(C)C)c3ccc(Cl)cc3C2(C)C)N(CCC[N+](C)(C)C)c2ccc(Cl)cc21.[Br-].[Br-].[Br-] [A-138 (17)] the “Change in Thermal Melting Points, Duplex, 1:1” value (shortened to “Change … Duplex, 1:1”) was 0.0.
In the case of CC1(C)C(=CC=CC2=[N+](CCC[N+](C)(C)C)c3ccccc3C2(C)C)N(CCC[N+](C)(C)C)c2ccccc21.[Br-].[Br-].[Br-] [MH4 (26)], the “Change … Duplex, 1:1” value is reported as 0.
For CC1(C)C(/C=C/C(Cl)=C/C=C2\N(CCC[N+](C)(C)C)c3ccccc3C2(C)C)=[N+](CCC[N+](C)(C)C)c2ccccc21.[Br-].[Br-].[Br-] [A-20 (42)], the “Change … Duplex, 1:1” value was 0.

Same assay, conditions: ratio 2:1 (R)
For CC1(C)C(=CC=CC2=[N+](CCC[N+](C)(C)C)c3ccc(Cl)cc3C2(C)C)N(CCC[N+](C)(C)C)c2ccc(Cl)cc21.[Br-].[Br-].[Br-] [A-138 (17)], the “Change in Thermal Melting Points, Duplex, 2:1” value (“Change … Duplex, 2:1” below) was 0.0.
For CC1(C)C(=CC=CC2=[N+](CCC[N+](C)(C)C)c3ccccc3C2(C)C)N(CCC[N+](C)(C)C)c2ccccc21.[Br-].[Br-].[Br-] [MH4 (26)], the “Change … Duplex, 2:1” value was 0.9.
CC1(C)C(/C=C/C(Cl)=C/C=C2\N(CCC[N+](C)(C)C)c3ccccc3C2(C)C)=[N+](CCC[N+](C)(C)C)c2ccccc21.[Br-].[Br-].[Br-] [A-20 (42)] was tested, and the “Change … Duplex, 2:1” value was 0.9.

Same assay, conditions: ratio 4:1 (R)
With CC1(C)C(=CC=CC2=[N+](CCC[N+](C)(C)C)c3ccc(Cl)cc3C2(C)C)N(CCC[N+](C)(C)C)c2ccc(Cl)cc21.[Br-].[Br-].[Br-] [A-138 (17)] the “Change in Thermal Melting Points, Duplex, 4:1” value (from here on “Change … Duplex, 4:1”) was −1.0.
CC1(C)C(=CC=CC2=[N+](CCC[N+](C)(C)C)c3ccccc3C2(C)C)N(CCC[N+](C)(C)C)c2ccccc21.[Br-].[Br-].[Br-] [MH4 (26)] was tested, and the “Change … Duplex, 4:1” value was −0.2.
In the case of CC1(C)C(/C=C/C(Cl)=C/C=C2\N(CCC[N+](C)(C)C)c3ccccc3C2(C)C)=[N+](CCC[N+](C)(C)C)c2ccccc21.[Br-].[Br-].[Br-] [A-20 (42)], the “Change … Duplex, 4:1” value is reported as 0.9.

Same assay, conditions: ratio 6:1 (R)
CC1(C)C(=CC=CC2=[N+](CCC[N+](C)(C)C)c3ccccc3C2(C)C)N(CCC[N+](C)(C)C)c2ccccc21.[Br-].[Br-].[Br-] [MH4 (26)] was tested, and the “Change in Thermal Melting Points, Duplex, 6:1” value was 1.8.
In the case of CC1(C)C(/C=C/C(Cl)=C/C=C2\N(CCC[N+](C)(C)C)c3ccccc3C2(C)C)=[N+](CCC[N+](C)(C)C)c2ccccc21.[Br-].[Br-].[Br-] [A-20 (42)], the “Change in Thermal Melting Points, Duplex, 6:1” value is reported as 2.8.

Each compound was assayed on Human Telomere (HT) quadruplex DNA (assay: Fluorescence titration with human telomere quadruplex). Settings: fluorescence intensity of bound ligand divided by that of free ligand.
Format: binding
Excerpt: (§6) Atoms absorb energy and can emit it as heat (vibrational relaxation), fast light emission (fluorescence), or slow light emission (phosphorescence). Most of the cyanines described herein fluoresce in response to near-infrared wavelengths of light absorption. As the cyanines bind to DNA, π-π stacking and hydrogen bonding is altered leading to a change in fluorescence emission. This change can be measured in direct correlation to DNA binding. In some cases an approximate binding constant can be determined from measuring fluorescence enhancement as DNA is titrated into a solution of fluorescent compound. Fluorescent enhancement, or the maximum emission divided by the minimum emission of the titration (compound saturated with DNA divided by free compound) at a fixed wavelength is useful to compare DNA affinity between a family of compounds.
(§7) A UV-Vis absorbance scan is first conducted to acquire the excitation wavelength. A 5 μM solution of compound in 1 mL, of Tris/K+ buffer is scanned from 800 nm to 200 nm at a rate of 60 nm/min with a 5 nm slit width. All DNAs are diluted in Tris/K+ buffer. The human telomere and c-Myc DNA are annealed into a quadruplex motif by heating at 95° C. in the presence of potassium ions in a hot water bath for approximately five minutes, then allowing the solution to slowly come to room temperature. In a fluorescence cell, an emission scan of 1 μM of compound in 1 mL of Tris Buffer is taken (Varian Cary Eclipse, Walnut Creek, Calif.) with appropriate parameters based on the excitation wavelength, an excitation slit width of 5 nm, and an emission slit width of 5 nm. Then 0.05 μM of DNA is titrated into the solution and scanned under the same conditions after each addition. The solution is titrated to saturation, at which the change in fluorescence intensity is nearly zero.
(§8) Due to the highly stabilized parallel quadruplex structure of c-Myc, thermal melting could not be considered for this sequence. Thus, fluorescence can be used to measure binding affinity towards the two quadruplex structures. […] Fluorescence enhancement, or the fluorescence intensity of the bound ligand divided by that of the free ligand, was considered in evaluating binding.
With CC1(C)C(=CC=CC2=[N+](CCC[N+](C)(C)C)c3ccc(Cl)cc3C2(C)C)N(CCC[N+](C)(C)C)c2ccc(Cl)cc21.[Br-].[Br-].[Br-] [A-138 (17)] the “Fluorescence Enhancement, HT” value was 2.7.
For CC1(C)C(=CC=CC2=[N+](CCC[N+](C)(C)C)c3ccccc3C2(C)C)N(CCC[N+](C)(C)C)c2ccccc21.[Br-].[Br-].[Br-] [MH4 (26)], the “Fluorescence Enhancement, HT” value was 1.68.
In the case of CC1(C)C(/C=C/C(Cl)=C/C=C2\N(CCC[N+](C)(C)C)c3ccccc3C2(C)C)=[N+](CCC[N+](C)(C)C)c2ccccc21.[Br-].[Br-].[Br-] [A-20 (42)], the “Fluorescence Enhancement, HT” value is reported as 1.74.

The compounds below were run on c-Myc quadruplex DNA (assay: Fluorescence titration with c-Myc quadruplex). Settings: fluorescence intensity of bound ligand divided by that of free ligand.
Format: binding
Excerpt: as §6, §7, §8
CC1(C)C(=CC=CC2=[N+](CCC[N+](C)(C)C)c3ccc(Cl)cc3C2(C)C)N(CCC[N+](C)(C)C)c2ccc(Cl)cc21.[Br-].[Br-].[Br-] [A-138 (17)] was tested, and the “Fluorescence Enhancement, c-Myc” value was 5.4.
For CC1(C)C(=CC=CC2=[N+](CCC[N+](C)(C)C)c3ccccc3C2(C)C)N(CCC[N+](C)(C)C)c2ccccc21.[Br-].[Br-].[Br-] [MH4 (26)], the “Fluorescence Enhancement, c-Myc” value was 7.74.
For CC1(C)C(/C=C/C(Cl)=C/C=C2\N(CCC[N+](C)(C)C)c3ccccc3C2(C)C)=[N+](CCC[N+](C)(C)C)c2ccccc21.[Br-].[Br-].[Br-] [A-20 (42)], the “Fluorescence Enhancement, c-Myc” value was 3.58.

Each compound was assayed on Human Telomere (HT) quadruplex DNA (assay: Thermal melting UV-Vis absorbance, quadruplex DNA). Settings: quadruplex vs duplex.
Format: binding
Protocol: as §1
The concentration of each DNA sample mixed with MilliQ water was determined by UV-Vis at 260 nm using their extinction coefficients. Quadruplexes from Human Telomere (Tel22) and c-myc were prepared by heating the corresponding oligonucleotides at 90° C. for 5 minutes in a 10 mM Tris/50 mM KCl buffer at pH 7.5 and then cooling to room temperature (to favor the intramolecular folding).
as §2, §3, §4, §5
With CC1(C)C(=CC=CC2=[N+](CCC[N+](C)(C)C)c3ccc(Cl)cc3C2(C)C)N(CCC[N+](C)(C)C)c2ccc(Cl)cc21.[Br-].[Br-].[Br-] [A-138 (17)] the “Selectivity for quadruplex over duplex DNA by thermal melting” value (shortened to “Selectivity for quadruplex”) was “selectively bind to quadruplex DNA with little or no binding to duplex DNA”.
With CC1(C)C(=CC=CC2=[N+](CCC[N+](C)(C)C)c3ccccc3C2(C)C)N(CCC[N+](C)(C)C)c2ccccc21.[Br-].[Br-].[Br-] [MH4 (26)] the “Selectivity for quadruplex” value was “selectively bind to quadruplex DNA with little or no binding to duplex DNA”.
For CC1(C)C(/C=C/C(Cl)=C/C=C2\N(CCC[N+](C)(C)C)c3ccccc3C2(C)C)=[N+](CCC[N+](C)(C)C)c2ccccc21.[Br-].[Br-].[Br-] [A-20 (42)], the “Selectivity for quadruplex” value was “selectively bind to quadruplex DNA with little or no binding to duplex DNA”.

Same assay, conditions: ratio 1:1 (R)
For CC1(C)C(=CC=CC2=[N+](CCC[N+](C)(C)C)c3ccc(Cl)cc3C2(C)C)N(CCC[N+](C)(C)C)c2ccc(Cl)cc21.[Br-].[Br-].[Br-] [A-138 (17)], the “Change in Thermal Melting Points, Human Telomere (HT), 1:1” value (from here on “Change … (HT), 1:1”) was 3.0.
For CC1(C)C(=CC=CC2=[N+](CCC[N+](C)(C)C)c3ccc(S(=O)(=O)[O-])cc3C2(C)C)N(CCC[N+](C)(C)C)c2ccc(S(=O)(=O)[O-])cc21.[Br-] [MH2 (31)], the “Change … (HT), 1:1” value was 1.5.
For CC1(C)C(=CC=CC2=[N+](CCC[N+](C)(C)C)c3ccccc3C2(C)C)N(CCC[N+](C)(C)C)c2ccccc21.[Br-].[Br-].[Br-] [MH4 (26)], the “Change … (HT), 1:1” value was 1.6.
In the case of CC1(C)C(/C=C/C(Cl)=C/C=C2\N(CCC[N+](C)(C)C)c3ccccc3C2(C)C)=[N+](CCC[N+](C)(C)C)c2ccccc21.[Br-].[Br-].[Br-] [A-20 (42)], the “Change … (HT), 1:1” value is reported as 2.6.

Same assay, conditions: ratio 2:1 (R)
With CC1(C)C(=CC=CC2=[N+](CCC[N+](C)(C)C)c3ccc(Cl)cc3C2(C)C)N(CCC[N+](C)(C)C)c2ccc(Cl)cc21.[Br-].[Br-].[Br-] [A-138 (17)] the “Change in Thermal Melting Points, Human Telomere (HT), 2:1” value (from here on “Change … (HT), 2:1”) was 7.0.
CC1(C)C(=CC=CC2=[N+](CCC[N+](C)(C)C)c3ccc(S(=O)(=O)[O-])cc3C2(C)C)N(CCC[N+](C)(C)C)c2ccc(S(=O)(=O)[O-])cc21.[Br-] [MH2 (31)] was tested, and the “Change … (HT), 2:1” value was 1.1.
In the case of CC1(C)C(=CC=CC2=[N+](CCC[N+](C)(C)C)c3ccccc3C2(C)C)N(CCC[N+](C)(C)C)c2ccccc21.[Br-].[Br-].[Br-] [MH4 (26)], the “Change … (HT), 2:1” value is reported as 4.1.
With CC1(C)C(/C=C/C(Cl)=C/C=C2\N(CCC[N+](C)(C)C)c3ccccc3C2(C)C)=[N+](CCC[N+](C)(C)C)c2ccccc21.[Br-].[Br-].[Br-] [A-20 (42)] the “Change … (HT), 2:1” value was 6.0.

Same assay, conditions: ratio 4:1 (R)
CC1(C)C(=CC=CC2=[N+](CCC[N+](C)(C)C)c3ccc(Cl)cc3C2(C)C)N(CCC[N+](C)(C)C)c2ccc(Cl)cc21.[Br-].[Br-].[Br-] [A-138 (17)] was tested, and the “Change in Thermal Melting Points, Human Telomere (HT), 4:1” value (from here on “Change … (HT), 4:1”) was 14.6.
CC1(C)C(=CC=CC2=[N+](CCC[N+](C)(C)C)c3ccc(S(=O)(=O)[O-])cc3C2(C)C)N(CCC[N+](C)(C)C)c2ccc(S(=O)(=O)[O-])cc21.[Br-] [MH2 (31)] was tested, and the “Change … (HT), 4:1” value was 0.6.
CC1(C)C(=CC=CC2=[N+](CCC[N+](C)(C)C)c3ccccc3C2(C)C)N(CCC[N+](C)(C)C)c2ccccc21.[Br-].[Br-].[Br-] [MH4 (26)] was tested, and the “Change … (HT), 4:1” value was 8.7.
In the case of CC1(C)C(/C=C/C(Cl)=C/C=C2\N(CCC[N+](C)(C)C)c3ccccc3C2(C)C)=[N+](CCC[N+](C)(C)C)c2ccccc21.[Br-].[Br-].[Br-] [A-20 (42)], the “Change … (HT), 4:1” value is reported as 12.2.

Same assay, conditions: ratio 6:1 (R)
In the case of CC1(C)C(=CC=CC2=[N+](CCC[N+](C)(C)C)c3ccc(S(=O)(=O)[O-])cc3C2(C)C)N(CCC[N+](C)(C)C)c2ccc(S(=O)(=O)[O-])cc21.[Br-] [MH2 (31)], the “Change in Thermal Melting Points, Human Telomere (HT), 6:1” value (from here on “Change … (HT), 6:1”) is reported as 1.2.
CC1(C)C(=CC=CC2=[N+](CCC[N+](C)(C)C)c3ccccc3C2(C)C)N(CCC[N+](C)(C)C)c2ccccc21.[Br-].[Br-].[Br-] [MH4 (26)] was tested, and the “Change … (HT), 6:1” value was 13.7.
In the case of CC1(C)C(/C=C/C(Cl)=C/C=C2\N(CCC[N+](C)(C)C)c3ccccc3C2(C)C)=[N+](CCC[N+](C)(C)C)c2ccccc21.[Br-].[Br-].[Br-] [A-20 (42)], the “Change … (HT), 6:1” value is reported as 13.2.
